A short description of data set [1]: HLM stability (High Activity). The class given is in vitro ADME. The conditions noted are these: both sexes, human, liver microsomes, pH 7.4, Condition 2 (High Activity), 1.0 mg protein/mL. In outline: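 Pooled male and female human liver microsomes, 1.0 mg protein/mL, in 100 mM PBS pH 7.4 with NADPH-regenerating system; compound 1 μM at 37° C, five time points over 60 min. Parent remaining by LC-MS/MS; kel, t1/2 and Clint from linear regression of ln(AUC) versus time.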
On the technique in general: Liver microsomes are vesicles of endoplasmic reticulum, rich in cytochrome P450 enzymes.

The nature of data set [2]: MLM stability (High Activity). It is filed as in vitro ADME, BALB/c mice. The conditions noted are these: male, BALB/c, mouse, liver microsomes, pH 7.4, Condition 2 (High Activity), 1.0 mg protein/mL. In outline:
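Pooled male BALB/c mouse liver microsomes (1.0 mg/mL) in 100 mM PBS pH 7.4 with NADPH-regenerating system; compound 1 μM, 37 °C, five time points over 60 min, duplicate; NADPH-free controls. Parent remaining by LC-MS/MS; kel, t1/2 and Clint from linear regression of ln(AUC) versus time.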

The target in data set [3] is MK-801 binding site of the N-methyl-D-aspartate receptor (NMDAR). The data set can be described thus: NMDAR radioligand binding with [3H]MK-801, Method B. More on the design: species or system Sprague Dawley rat. The note with it: for Ki: MK-801 site, Method B, male Sprague Dawley rat cortex, 5.0 nM [3H]MK-801, read-out: NMDAR Ki ± SEM. As for the experimental part:
Radioligand Binding—Method B. Affinity of the test compounds for NMDAR was determined in radioligand binding experiments with [^3H]MK-801 by WuXi AppTec (Hong Kong) Limited, under the conditions described in Table 13.

Data set [4] addresses T1, serotonin transporter (SERT) (Homo sapiens, UniProt P31645).
T1 construct: expressed in transfected cells; host or cells: HEK293
The data set can be described thus: Fluorescent substrate uptake inhibition, SERT. The class given is cell-based. The conditions noted are these: for inhibition at 10 µM: HEK293 cells expressing SERT.

For data set [5], the target named is T2, dopamine transporter (DAT) (Homo sapiens, UniProt Q01959).
T2 construct: expressed in transfected cells; host or cells: CHO (uptake)
The data set can be described thus: Fluorescent substrate uptake inhibition, DAT. The class given is cell-based. The conditions noted are these: for inhibition at 10 µM: CHO cells expressing DAT.

Data set [6] has as its target T3, vesicular monoamine transporter 2 (VMAT2) (Homo sapiens, UniProt Q05940).
T3 construct: expressed in transfected cells
Put plainly: Fluorescent substrate uptake inhibition, VMAT2. It is filed as cell-based. The conditions noted are these: for inhibition at 10 µM: transfected cells.

The test system of data set [7] is monoamine transporters, MATs (SERT, NET, DAT, VMAT2). Put plainly: Monoamine uptake inhibition, monoamine transporters collectively. The class given is cell-based. The conditions noted are these: in words. As for the experimental part: The ability of the compounds of the present invention to inhibit uptake of monoamines by the serotonin transporter (SERT), norepinephrine transporter (NET), dopamine transporter (DAT), and vesicular monoamine transporter 2 (VMAT2) (collectively monoamine transporters, MATs) was measured using fluorescent substrate uptake assays in transfected cells (Table 14). The binding affinities of select compounds were also determined in radioligand displacement assays at SERT, NET, and/or DAT (Table 14).
Uptake Inhibition. The ability of test compounds to block monoamine uptake by SERT, NET, DAT, and VMAT2 was determined using the Neurotransmitter Transporter Uptake Assay Kit manufactured by Molecular Devices (Cat #R8173). Briefly, stably transfected cells expressing the MAT of interest (HEK293 cells for SERT and NET; CHO cells for DAT) were grown and plated into 384-well plates at a concentration of 20,000 cells per well. Plates were then incubated for 16-20 h at 37° C. and 5% CO2. The medium was then aspirated and replaced with 25 μL of assay buffer (20 mM HEPES in HBSS, containing 0.1% BSA) containing the test compounds at the appropriate concentrations. Plates were then centrifuged at 300 rpm for 15 s and then incubated at 37° C. for 30 minutes. At this time, 25 μL of the proprietary fluorescent dye solution was added, the plates were incubated at 37° C. for 60 minutes, and then fluorescence was quantified on a plate reader (excitation wavelength=440 nm, emission wavelength=520 nm). The proprietary dye solution contains a mixture of 1) a fluorescent dye that mimics the endogenous substrates of MATs and is thereby actively transported to the intracellular compartment in the absence of an inhibitor and 2) a masking dye that inhibits the fluorescence of dye 1 in the extracellular compartment. Therefore, the overall fluorescence of the system increases as the fluorescent dye is transported into the cells.

Molecules are shown by their SMILES. Where a name gives a salt, the structure may show the parent alone.

T3 sequence (Q05940 whole entry, species assumed): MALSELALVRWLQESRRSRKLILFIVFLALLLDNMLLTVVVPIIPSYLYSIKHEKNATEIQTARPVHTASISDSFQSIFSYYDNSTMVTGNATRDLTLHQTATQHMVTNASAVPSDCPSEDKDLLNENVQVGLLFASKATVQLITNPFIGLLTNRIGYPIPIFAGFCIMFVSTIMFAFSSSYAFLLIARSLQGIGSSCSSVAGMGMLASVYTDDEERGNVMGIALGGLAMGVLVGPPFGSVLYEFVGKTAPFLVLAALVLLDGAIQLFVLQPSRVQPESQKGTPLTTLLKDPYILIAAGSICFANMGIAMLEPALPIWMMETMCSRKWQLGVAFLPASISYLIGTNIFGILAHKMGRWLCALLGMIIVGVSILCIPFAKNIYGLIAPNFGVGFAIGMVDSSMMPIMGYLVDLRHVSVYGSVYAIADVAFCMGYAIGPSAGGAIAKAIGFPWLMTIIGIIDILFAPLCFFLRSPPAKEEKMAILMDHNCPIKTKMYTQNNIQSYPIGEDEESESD
T2 sequence (Q01959 whole entry, species assumed): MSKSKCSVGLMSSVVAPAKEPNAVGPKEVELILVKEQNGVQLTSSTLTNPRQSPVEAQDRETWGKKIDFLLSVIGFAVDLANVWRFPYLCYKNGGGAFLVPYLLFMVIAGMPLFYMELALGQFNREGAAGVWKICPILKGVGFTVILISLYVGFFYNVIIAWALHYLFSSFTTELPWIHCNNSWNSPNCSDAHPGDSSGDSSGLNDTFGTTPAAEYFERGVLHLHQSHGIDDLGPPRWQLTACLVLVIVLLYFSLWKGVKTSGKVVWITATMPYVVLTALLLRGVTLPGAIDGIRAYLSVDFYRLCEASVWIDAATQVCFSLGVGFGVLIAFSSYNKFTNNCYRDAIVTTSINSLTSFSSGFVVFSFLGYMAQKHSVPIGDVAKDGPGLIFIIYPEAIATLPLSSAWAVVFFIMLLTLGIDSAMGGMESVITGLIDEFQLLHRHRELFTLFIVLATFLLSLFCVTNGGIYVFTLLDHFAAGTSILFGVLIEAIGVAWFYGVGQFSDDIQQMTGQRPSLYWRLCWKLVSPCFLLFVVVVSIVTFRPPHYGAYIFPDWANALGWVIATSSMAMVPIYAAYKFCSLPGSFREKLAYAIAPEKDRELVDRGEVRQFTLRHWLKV
T1 sequence (P31645 whole entry, species assumed): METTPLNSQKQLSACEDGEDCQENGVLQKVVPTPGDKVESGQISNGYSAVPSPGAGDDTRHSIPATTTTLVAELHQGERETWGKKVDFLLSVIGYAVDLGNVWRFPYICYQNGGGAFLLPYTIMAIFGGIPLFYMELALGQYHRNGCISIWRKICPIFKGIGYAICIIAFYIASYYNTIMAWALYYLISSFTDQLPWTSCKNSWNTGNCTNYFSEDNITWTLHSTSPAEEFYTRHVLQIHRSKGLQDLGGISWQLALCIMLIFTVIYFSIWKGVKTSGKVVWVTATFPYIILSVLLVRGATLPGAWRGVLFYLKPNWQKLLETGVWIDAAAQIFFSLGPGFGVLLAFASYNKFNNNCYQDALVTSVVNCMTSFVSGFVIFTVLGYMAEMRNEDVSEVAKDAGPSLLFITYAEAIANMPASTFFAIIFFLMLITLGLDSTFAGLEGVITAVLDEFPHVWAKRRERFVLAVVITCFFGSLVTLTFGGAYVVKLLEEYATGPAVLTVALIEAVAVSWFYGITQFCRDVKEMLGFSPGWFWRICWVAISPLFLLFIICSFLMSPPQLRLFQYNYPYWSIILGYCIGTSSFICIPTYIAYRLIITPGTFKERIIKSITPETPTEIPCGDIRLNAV

By half-life is commonly meant the time needed for the level to fall by half in the phase considered. By microsomal CLint is commonly meant a measure of how fast metabolising enzymes remove a compound, apart from limits set by blood flow. A higher microsomal CLint goes with faster metabolism. Take `CNC1(c2ccccc2)CCCCC1=O` (racemic) [Compound 14rac, 2-(methylamino)-2-phenylcyclohexan-1-one hydrochloride]: in data set [1], the half-life at 1 μM came out at 6.12 h and the microsomal CLint at 1 μM was determined as 2 µL/min/mg.
What is called Ki is the equilibrium dissociation constant of an inhibitor or competing ligand from its target. Broadly, the IC50 is the concentration that gives 50% inhibition. Higher therefore signals weaker potency in that assay. For orientation: inhibition means the drop in the measured response relative to a control, in per cent. For the molecule `O=C1CCCCC1(c1ccccc1)N1CCCC1` (racemic) [Compound 27rac, 2-phenyl-2-(pyrrolidin-1-yl)cyclohexan-1-one], the half-life at 1 μM was 3.87 h in data set [1] and 0.583 h in data set [2]. Moreover, the microsomal CLint at 1 μM in data set [1] came out at 3 µL/min/mg; in data set [2] it was 20 µL/min/mg. In data set [3], the Ki is 1.1 µM. The IC50 amounted to 0.45 µM in data set [4], 6.5 µM in data set [5] and 11.2 µM in data set [6]. Besides, the inhibition at 10 µM was 88.6% in data set [4], 49.5% in data set [5] and 60.4% in data set [6].
In data set [1], `COCCNC1(c2ccccc2)CCCCC1=O` (racemic) [Compound 29rac, 2-((2-methoxyethyl)amino)-2-phenylcyclohexan-1-one] registered a half-life at 1 μM of 2.33 h and a microsomal CLint at 1 μM of 5 µL/min/mg. In data set [2], this molecule displayed a half-life at 1 μM of 0.283 h and a microsomal CLint at 1 μM of 41 µL/min/mg. The Ki in data set [3] came to 4.4 µM. Also, in data set [7], the “selectivity for NMDAR (over MATs)” value is listed as “greater selectivity for NMDAR”.
In data set [1], `CNC1(c2ccccc2Cl)CCCCC1=O` (racemic) [rac-ketamine, racemic ketamine, reference compound] came in with a half-life at 1 μM of 0.613 h and a microsomal CLint at 1 μM of 19 µL/min/mg. In addition, in data set [2], the half-life at 1 μM came out at 0.155 h and the microsomal CLint at 1 μM turned out to be 75 µL/min/mg.
`N[C@@]1(c2ccccc2)CCCCC1=O` [Compound 11R, (R)-2-amino-2-phenyl-cyclohexan-1-one]: the half-life at 1 μM in data set [1] turned out to be 3.31 h; in data set [2] it was 2.82 h. Also, the microsomal CLint at 1 μM in data set [1] was determined as 3 µL/min/mg; in data set [2], 4 µL/min/mg. Further, in data set [3], the Ki came to 9.4 µM. Moreover, the inhibition at 10 µM in data set [4] was 0.19%; in data set [5], -11.8%; in data set [6] it was 14.4%.
On to `N[C@]1(c2ccccc2)CCCCC1=O` [Compound 11S, (S)-2-amino-2-phenyl-cyclohexan-1-one], for which the figures for the half-life at 1 μM in data set [1] and in data set [2] were 3.25 h and 3.62 h, respectively. Also, the figures for the intrinsic clearance (microsomal CLint) at 1 μM in data set [1] and in data set [2] were 4 µL/min/mg and 3 µL/min/mg, respectively. The Ki in data set [3] worked out at 1.2 µM. In addition, the inhibition at 10 µM in data set [4] was -2.6%; in data set [5] it was 10.1%; in data set [6], -17.4%. Also, the “selectivity for NMDAR (over MATs)” value in data set [7] was “greater selectivity for NMDAR”.
Turning to `CN[C@@]1(c2ccccc2)CCCCC1=O` [Compound 14R, (R)-2-(methylamino)-2-phenylcyclohexan-1-one], the half-life at 1 μM in data set [1] is 9.77 h; in data set [2], 3.28 h. For the same molecule, the results for the intrinsic clearance (microsomal CLint) at 1 μM in data set [1] and in data set [2] were 1 µL/min/mg and 4 µL/min/mg, respectively. Moreover, the “NMDAR binding affinity, comparison in words” value in data set [3] (14R vs rac-ketamine, (R)-ketamine, (S)-ketamine and 14S, R enantiomers vs S enantiomers or racemates) is “weaker NMDAR binding”. Moreover, in data set [3], the Ki turned out to be 4.5 µM. The 50% inhibitory concentration (IC50) in data set [4] was determined as 45.5 µM. The inhibition at 10 µM in data set [4] is 19.3%; in data set [5], -4.5%; in data set [6] it was 6.2%. The “selectivity for NMDAR (over MATs)” value in data set [7] is on record as “greater selectivity for NMDAR”.
For the molecule `CN[C@]1(c2ccccc2)CCCCC1=O` [Compound 14S, (S)-2-(methylamino)-2-phenylcyclohexan-1-one], the half-life at 1 μM came out at 6.18 h in data set [1] and 4.38 h in data set [2]. In addition, the intrinsic clearance (microsomal CLint) at 1 μM in data set [1] came out at 2 µL/min/mg; in data set [2], 3 µL/min/mg. For the same molecule, in data set [3], the inhibition constant Ki was 0.69 µM. In addition, in data set [4], the half-inhibitory concentration (IC50) was 30.6 µM. Besides, the inhibition at 10 µM in data set [4] was 17%; in data set [5], -4.5%; in data set [6], 7.4%.
On to `CN[C@]1(c2cccc(F)c2)CCCCC1=O` [Compound 19S, (5)-2-(3-fluorophenyl)-2-(methylamino)cyclohexan-1-one], for which the half-life at 1 μM in data set [1] amounted to 1.59 h; in data set [2], 1.01 h. Further, the microsomal CLint at 1 μM in data set [1] stood at 7 µL/min/mg; in data set [2], 11 µL/min/mg. In addition, in data set [3], the inhibition constant Ki amounted to 2.1 µM. The inhibition at 10 µM is 20.6% in data set [4], 18.1% in data set [5] and -0.87% in data set [6]. The “selectivity for NMDAR (over MATs)” value in data set [7] was “greater selectivity for NMDAR”.
As to `O=C1CCCC[C@]1(c1ccccc1)N1CCC1` [Compound 84R, (R)-2-(azetidin-1-yl)-2-phenyl-cyclohexan-1-one], the results for the half-life at 1 μM in data set [1] and in data set [2] were 2.75 h and 0.378 h, respectively. The results for the intrinsic clearance (microsomal CLint) at 1 μM in data set [1] and in data set [2] were 4 µL/min/mg and 30 µL/min/mg, respectively. The Ki in data set [3] came to 2.3 µM. For the same molecule, the figures for the IC50 in data set [4], in data set [5] and in data set [6] were 0.8 µM, 19.4 µM and 98.2 µM, respectively. For the same molecule, the results for the inhibition at 10 µM in data set [4], in data set [5] and in data set [6] were 75.2%, 28.2% and 14.1%, respectively.
On to `O=C1CCCC[C@@]1(c1ccccc1)N1CCC1` [Compound 84S, (S)-2-(azetidin-1-yl)-2-phenyl-cyclohexan-1-one], for which the half-life at 1 μM in data set [1] was found to be 2.76 h; in data set [2], 0.322 h. Further, the microsomal CLint at 1 μM in data set [1] was determined as 4 µL/min/mg; in data set [2], 36 µL/min/mg. Also, the inhibition constant Ki in data set [3] turned out to be 1.3 µM. Further, the half-maximal inhibitory concentration (IC50) in data set [4] was 0.94 µM; in data set [5], 19.5 µM; in data set [6], > 100 µM. Moreover, the values for the inhibition at 10 µM in data set [4], in data set [5] and in data set [6] were 91.9%, 32.2% and 10.9%, respectively.
Regarding `[2H]C([2H])([2H])N[C@@]1(c2ccccc2)CCCCC1=O` [Compound 88R, (R)-2-((methyl-d3)amino)-2-phenylcyclohexan-1-one], the figures for the half-life at 1 μM in data set [1] and in data set [2] were 2.92 h and 1.76 h, respectively. Further, the figures for the intrinsic metabolic clearance (microsomal CLint) at 1 μM in data set [1] and in data set [2] were 4 µL/min/mg and 7 µL/min/mg, respectively. The Ki in data set [3] was 3.4 µM. Further, the inhibition at 10 µM in data set [4] was 25.9%; in data set [5], 7.9%; in data set [6], 20.2%. The “selectivity for NMDAR (over MATs)” value in data set [7] was “greater selectivity for NMDAR”.
As to `Cc1ccccc1[C@]1(N)CCCCC1=O` [Compound 114R, (R)-2-amino-2-(o-tolyl)cyclohexan-1-one], the inhibition constant (Ki) in data set [3] is > 23 µM. In addition, the inhibition at 10 µM in data set [4] was 23.4%; in data set [5], 6.2%; in data set [6], -14%.
With `Cc1ccccc1[C@@]1(N)CCCCC1=O` [Compound 114S, (S)-2-amino-2-(o-tolyl)cyclohexan-1-one], the Ki in data set [3] is 2.5 µM. Besides, the inhibition at 10 µM in data set [4] was -4%; in data set [5], -15.2%; in data set [6], -15.9%. Besides, the “selectivity for NMDAR (over MATs)” value in data set [7] is on record as “greater selectivity for NMDAR”.

The values above are taken from US11344510B2, “Arylcyclohexylamine derivatives and their use in the treatment of psychiatric disorders” (Gilgamesh Pharmaceuticals, Inc., priority 2019, dated 2022).
